# Test results reported in patent US4803220A, “Pharmaceutical agents” (Imperial Chemical Industries PLC, priority 1984, dated 1989).
# What was measured:
# [1] = tested on: guinea-pig; test: bronchoconstriction test, Konzett-Rossler guinea-pig model, U46619 induced; format: in vivo; conditions: for reduction (inhibition) of bronchoconstriction: 0.5 mg./kg. p.o., 2.5 hours after administration, guinea-pig, U46619 i.v.
# Procedure: (c) a bronchoconstriction test involving measuring the inhibition by a test compound of the bronchoconstriction induced in the Konzett-Rossler guinea-pig model (as modified by Collier and James, Brit. J. Pharmacol., 1967, 30, 283-307) by intravenous administration of the TXA2 mimetic agent, U46619 at 1-1.9 μg/kg.
# [2] = tested on: dog platelets; test: ex vivo U46619 induced blood platelet aggregation after oral dosing, dogs; format: in vivo; conditions: for inhibition of U46619 induced aggregation: 12 hours after oral administration to dogs at 2.5 mg./kg.
# Description: (§1) (e) For example in the rabbit, arterial blood samples are taken by standard techniques into 3.8% w/v solution of trisodium citrate as anti-coagulant (1 part citrate: 9 parts blood) and then centrifuged first at 150 g, and then at 1000 g, to prepare platelet rich and platelet poor plasma fractions. These fractions are then used to calibrate an instrument for measuring light transmittance and thus the amount of platelet aggregation. The extent of platelet aggregation following addition of the TXA2 mimetic agent U46619 (final concentrations 0.2-2.2 μg./ml.) to the platelet rich plasma fraction is then determined, and the value of maximum aggregation in response to each concentration of U46619 is recorded. The test animals are then dosed orally with the test compound, and arterial blood samples are withdrawn at intervals after dosing. The platelet rich plasma fraction is prepared and U46619 added as above, and the extent of aggregation assessed by measuring the light transmittance of the sample. This value is compared with that obtained from the same animal before dosing, so that a measure of the extent of inhibition of U46619 induced blood platelet aggregation is obtained.
# A similar procedure is used in rats and guinea pigs except that blood samples are not taken prior to dosing but a control value is obtained from a group of undosed animals. When the aggregation of dog platelets is being studied, it is necessary to use a predetermined, threshold concentration of the platelet aggregant adenosine diphosphate (about 0.4-1.2×10^-6 M) together with the TXA2 mimetic agent, U46619.
# [3] = tested on: blood platelets; test: ex vivo U46619 induced blood platelet aggregation after oral dosing, rats; format: in vivo, rat; conditions: 6.5 hours after oral administration to rats at 10 mg./kg.
# Description: as §1
# A similar procedure is used in rats and guinea pigs except that blood samples are not taken prior to dosing but a control value is obtained from a group of undosed animals. […]
# [4] = tested on: Male rats (Alderley Park strain); test: U46619 induced hypertensive effect in anaesthetised rats; format: in vivo, rat
# Procedure: (d) Male rats (Alderley Park strain) are anaesthetised with sodium pentobarbital and blood pressure is monitored at the carotid artery. The TXA2 mimetic agent known as U46619 is administered intravenously via the jugular vein and an ED50 (dose necessary to produce 50% of the maximum hypertensive effect) is established (n=3). The ED50 for U46619 is approximately 5 μg/kg. The test compound is then administered either intravenously via the jugular vein or orally via a cannula directly into the stomach and the animal challenged with an ED50 dose of U46619, five minutes after dosing with test compound and then successively every ten minutes until the hypertensive effect of U46619 is no longer blocked.
# [5] = tested on: citrated, platelet rich, human plasma; test: blood platelet aggregation test, U46619 induced aggregation of platelet rich plasma; format: cell-based; conditions: inhibition of aggregation of human platelet rich plasma induced by U46619 (50-250 ng/ml)
# Procedure: (b) a blood platelet aggregation test based on that described by Born (Nature, 1962, 194, 927-929) and involving measuring the inhibition by a test compound of aggregation of citrated, platelet rich, human plasma induced by a sub-maximal concentration (in the range 50-250 ng/ml.) of U46619; and […]
smiles,measurement,setting,value
"CC1(C)OC[C@@H](C/C=C\CCCC(=O)O)[C@@H](c2ccccc2O)O1 (relative stereo) [P, 5(Z)-7-(4-o-hydroxyphenyl-2,2-dimethyl-1,3-dioxan-cis-5-yl)heptenoic acid]",reduction (inhibition) of bronchoconstriction,[1],57%
same,inhibition of U46619 induced aggregation,[2],15%
same,maximal inhibition of platelet aggregation,[2]; some 3 hours after an oral dose of 2.5 mg./kg. in dogs,93%
"O=C(O)CCC/C=C\C[C@@H]1CO[C@H](C(F)(F)F)O[C@@H]1c1ccccc1O (relative stereo) [formula I, 5(Z)-7-([2,4,5-cis]-4-o-hydroxyphenyl-2-trifluoromethyl-1,3-dioxan-5-yl)heptenoic acid]",inhibition of U46619 induced aggregation,[3],90%
same,protection from blood pressure rise induced by U46619,"[4]; 3 hours after oral administration at 5 mg./kg., rats",essentially complete protection
same,inhibition of bronchoconstriction,"[1]; 0.5 mg./kg. oral, 3 hours after dosing (as restated)",~95%
same,reduction (inhibition) of bronchoconstriction,[1],~95%
same,IC50,[5],7.78 ± 1.6 ng/mL
same,inhibition of U46619 induced aggregation,[2],95%
same,inhibition of U46619 induced platelet aggregation (in words),[2]; for up to 12 hours following an oral dose of 2.5 mg./kg. in dogs,essentially complete inhibition
"O=C(O)CCC/C=C\C[C@@H]1CO[C@H](C(F)(F)F)O[C@@H]1c1ccccc1 (relative stereo) [Q, 5(Z)-7-([2,4,5-cis]-4-phenyl-2-trifluoromethyl-1,3-dioxan-5-yl)heptenoic acid]",reduction (inhibition) of bronchoconstriction,[1],no significant inhibition
same,maximal inhibition of platelet aggregation,[2]; some 4 hours after an oral dose of 75 mg./kg. in dogs,23%
CCCCC[C@H](O)/C=C/[C@@H]1[C@@H](C/C=C\CCCC(=O)O)[C@H]2CO[C@@H]1C2 [Example U46619],ED50,"[4]; Rattus norvegicus, iv, U46619 intravenously via the jugular vein, anaesthetised rats, n=3, read-out: ED50 (dose necessary to produce 50% of the maximum hypertensive effect)",~5 µg/kg
